From ChEMBL document CHEMBL5154822, “Novel inhibitors of AChE and Aβ aggregation with neuroprotective properties as lead compounds for the treatment of Alzheimer's disease” (Eur J Med Chem, 2022)
Activity calls are given as the source filed them. No cut-off for these calls is given here.

What was measured:
Acetylcholinesterase = molecular target: T1, Acetylcholinesterase (Mus musculus, UniProt P21836); experiment: Inhibition of AChE in mouse cerebral cortex using acetylthiocholine iodide as substrate preincubated for 10 mins followed by substrate addition and measured for 180 secs by Ellman's spectrophotometric method; format: tissue-based
T1 sequence (P21836 whole entry): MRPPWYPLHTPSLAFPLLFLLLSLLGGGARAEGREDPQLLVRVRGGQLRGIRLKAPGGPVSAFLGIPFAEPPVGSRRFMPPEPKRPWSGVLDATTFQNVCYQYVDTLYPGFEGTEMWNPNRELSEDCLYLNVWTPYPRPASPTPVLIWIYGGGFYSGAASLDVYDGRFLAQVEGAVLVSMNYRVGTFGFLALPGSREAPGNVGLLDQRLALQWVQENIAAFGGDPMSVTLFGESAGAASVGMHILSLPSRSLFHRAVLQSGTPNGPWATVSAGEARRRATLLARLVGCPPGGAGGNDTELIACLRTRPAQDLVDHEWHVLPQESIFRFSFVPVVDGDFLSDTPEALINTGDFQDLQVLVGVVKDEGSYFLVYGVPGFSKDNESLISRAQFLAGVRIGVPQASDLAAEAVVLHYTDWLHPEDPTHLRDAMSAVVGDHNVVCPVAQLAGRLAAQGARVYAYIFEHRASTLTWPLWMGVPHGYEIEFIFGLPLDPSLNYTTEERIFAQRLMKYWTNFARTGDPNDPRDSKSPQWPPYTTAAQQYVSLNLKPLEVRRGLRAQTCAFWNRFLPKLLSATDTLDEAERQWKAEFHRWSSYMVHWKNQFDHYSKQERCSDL

[1] = molecular target: T2, Acetylcholinesterase (Mus musculus) (UniProt P21836); experiment: Inhibition of AChE in mouse cerebral cortex using acetylthiocholine iodide as substrate at 40 uM preincubated for 10 mins followed by substrate addition and measured for 180 secs by Ellman's spectrophotometric method; format: tissue-based; conditions: time 780.0 sec
T2 sequence (whole entry): T1 sequence (P21836 whole entry)

Mus musculus [2] = experiment: In vivo inhibition of AChE in ICR mouse hippocampus using acetylthiocholine iodide as substrate at 10 mg/kg, ig measured after 1 hr by microplate reader analysis; format: functional, organism-based
SH-SY5Y [3] = experiment: Neuroprotective activity in human SH-SY5Y differentiated neuronal cells assessed as inhibition of GA-induced cell death by measuring increase in cell viability at 0.5 to 5 uM measured after 24 hrs by MTT assay; format: functional, cell-based; conditions: dose 0.5-5 µM
[4] = Cytotoxicity against human SH-SY5Y cells assessed as maximum non-cytotoxic concentration by CellTiter-Glo luminescent assay; format: toxicity, cell-based; conditions: read-out: MNCC
Mus musculus [5] = experiment: In vivo inhibition of AChE in ICR mouse cerebral cortex using acetylthiocholine iodide as substrate at 10 mg/kg, ig measured after 1 hr by microplate reader analysis; format: functional, organism-based
SH-SY5Y [6] = experiment: Neuroprotective activity in human SH-SY5Y differentiated neuronal cells assessed as inhibition of GA-induced axon morphology defects at 0.5 uM by laser confocal microscope; format: functional, cell-based
Mus musculus [7] = experiment: Antialzheimer activity against scopolamine-induced cognitive deficit ICR mouse model assessed as improvement in memory impairment by measuring reduction in number of errors at 5 mg/kg, ig by step-through passive avoidance test; format: functional, organism-based
SH-SY5Y [8] = experiment: Antioxidant activity against okadaic acid-induced ROS generation in human SH-SY5Y cells assessed as reduction in DCF fluorescence intensity at 5 uM pretreated for 24 hrs followed by okadaic acid addition for 24 hrs by DCFH-DA dye based fluorescence analysis; format: functional, cell-based; conditions: time 48.0 hrs
SH-SY5Y [9] = experiment: Neuroprotective activity in human SH-SY5Y cells assessed as inhibition of okadaic acid-induced mitochondrial dysfunction by measuring increase in red-to-green fluorescence intensity ratio pretreated for 24 hrs followed by okadaic acid addition for 24 hrs by JC-1 dye based fluorescence analysis; format: functional, cell-based; conditions: dose 0.5-5 µM, time 48.0 hrs, DDE = dose-dependent effect
SH-SY5Y [10] = experiment: Neuroprotective activity in human SH-SY5Y differentiated neuronal cells assessed as inhibition of GA-induced neurite shortening by measuring increase in axon length at 0.5 uM by laser confocal microscope; format: functional, cell-based
Mus musculus [11] = experiment: In vivo inhibition of AChE in ig dosed ICR mouse cerebral cortex using acetylthiocholine iodide as substrate and measured after 1 hr by microplate reader analysis; format: functional, organism-based; conditions: dose 1-4 mg/kg, DDE = dose-dependent effect
Mus musculus [12] = experiment: In vivo inhibition of AChE in ig dosed ICR mouse hippocampus using acetylthiocholine iodide as substrate and measured after 1 hr by microplate reader analysis; format: functional, organism-based; conditions: dose 1-4 mg/kg, DDE = dose-dependent effect
[13] = molecular target: Acetylcholinesterase (Homo sapiens) (UniProt P22303); experiment: Inhibition of AChE in human SH-SY5Y differentiated neuronal cells assessed as inhibition of GA-induced tau hyperphosphorylation at Ser396 residue at 10 nM by ELISA; format: cell-based
Mus musculus [14] = experiment: In vivo inhibition of AChE in ICR mouse cerebral cortex using acetylthiocholine iodide as substrate at 4 mg/kg, ig measured after 1 hr by microplate reader analysis; format: functional, organism-based
[15] = molecular target: Acetylcholinesterase (Homo sapiens) (UniProt P22303); experiment: Inhibition of AChE in glyceraldehyde-exposed human SH-SY5Y differentiated neuronal cells using acetylthiocholine as substrate at 50 nM by Ellman's spectrophotometric method; format: cell-based
Mus musculus [16] = experiment: Antialzheimer activity against scopolamine-induced cognitive deficit ICR mouse model assessed as improvement in memory impairment by measuring reduction in number of errors at 0.1 to 0.3 mg/kg, ig by step-through passive avoidance test; format: functional, organism-based; conditions: dose 0.1-0.3 mg/kg
SH-SY5Y [17] = experiment: Neuroprotective activity in human SH-SY5Y differentiated neuronal cells assessed as inhibition of GA-induced neurite shortening by measuring increase in axon length at 5 uM by laser confocal microscope; format: functional, cell-based
SH-SY5Y [18] = experiment: Neuroprotective activity in human SH-SY5Y differentiated neuronal cells assessed as inhibition of GA-induced axon morphology defects at 5 uM by laser confocal microscope; format: functional, cell-based
Mus musculus [19] = experiment: In vivo inhibition of AChE in ICR mouse hippocampus using acetylthiocholine iodide as substrate at 4 mg/kg, ig measured after 1 hr by microplate reader analysis; format: functional, organism-based
Cytochrome P450 2C9 = Cytochrome P450 2C9 (Homo sapiens, UniProt P11712); experiment: Inhibition of CYP2C9 in human liver microsomes using diclofenac as substrate preincubated for 10 mins followed by NADPH addition and measured after 10 mins by LC-MS/MS analysis; format: ADME, Microsome
Cytochrome P450 2D6 = Cytochrome P450 2D6 (Homo sapiens, UniProt P10635); experiment: Inhibition of CYP2D6 in human liver microsomes using dextromethorphan as substrate preincubated for 10 mins followed by NADPH addition and measured after 10 mins by LC-MS/MS analysis; format: ADME, Microsome
[20] = Inhibition of CYP3A4 in human liver microsomes using testosterone as substrate preincubated for 10 mins followed by NADPH addition and measured after 10 mins by LC-MS/MS analysis; format: ADME, Microsome
[21] = Inhibition of CYP3A4 in human liver microsomes using midazolam as substrate preincubated for 10 mins followed by NADPH addition and measured after 10 mins by LC-MS/MS analysis; format: ADME, Microsome

Acetylcholinesterase (Homo sapiens), sequence (P22303 whole entry): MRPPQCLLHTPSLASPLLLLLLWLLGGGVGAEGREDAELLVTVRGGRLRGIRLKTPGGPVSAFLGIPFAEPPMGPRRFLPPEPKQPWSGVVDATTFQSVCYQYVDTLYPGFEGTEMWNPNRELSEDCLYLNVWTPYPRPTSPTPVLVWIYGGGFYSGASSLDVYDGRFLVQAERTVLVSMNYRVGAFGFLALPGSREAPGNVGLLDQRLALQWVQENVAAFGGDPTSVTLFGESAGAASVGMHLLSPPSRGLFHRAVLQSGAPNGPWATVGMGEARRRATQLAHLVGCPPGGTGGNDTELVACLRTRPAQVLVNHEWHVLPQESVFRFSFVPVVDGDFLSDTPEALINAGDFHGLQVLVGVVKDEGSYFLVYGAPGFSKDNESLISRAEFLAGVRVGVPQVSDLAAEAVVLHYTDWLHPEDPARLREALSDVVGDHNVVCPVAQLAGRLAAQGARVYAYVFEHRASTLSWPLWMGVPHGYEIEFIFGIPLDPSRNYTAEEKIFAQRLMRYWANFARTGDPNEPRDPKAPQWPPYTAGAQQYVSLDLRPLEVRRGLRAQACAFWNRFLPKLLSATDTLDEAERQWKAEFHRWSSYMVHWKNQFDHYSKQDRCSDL
Cytochrome P450 2C9, sequence (P11712 whole entry): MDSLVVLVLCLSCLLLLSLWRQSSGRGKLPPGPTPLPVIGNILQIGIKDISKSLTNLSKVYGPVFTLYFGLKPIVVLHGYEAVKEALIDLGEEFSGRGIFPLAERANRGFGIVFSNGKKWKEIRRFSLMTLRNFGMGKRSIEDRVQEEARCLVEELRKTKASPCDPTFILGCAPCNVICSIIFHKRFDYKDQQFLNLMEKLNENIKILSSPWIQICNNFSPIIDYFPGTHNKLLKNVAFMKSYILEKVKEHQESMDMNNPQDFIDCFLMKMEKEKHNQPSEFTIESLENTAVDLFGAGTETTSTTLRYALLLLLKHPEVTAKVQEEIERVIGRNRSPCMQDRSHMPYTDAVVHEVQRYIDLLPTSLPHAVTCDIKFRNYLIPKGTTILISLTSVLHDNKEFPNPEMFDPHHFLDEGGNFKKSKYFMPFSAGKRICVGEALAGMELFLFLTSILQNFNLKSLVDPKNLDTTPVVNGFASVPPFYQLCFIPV
Cytochrome P450 2D6, sequence (P10635 whole entry): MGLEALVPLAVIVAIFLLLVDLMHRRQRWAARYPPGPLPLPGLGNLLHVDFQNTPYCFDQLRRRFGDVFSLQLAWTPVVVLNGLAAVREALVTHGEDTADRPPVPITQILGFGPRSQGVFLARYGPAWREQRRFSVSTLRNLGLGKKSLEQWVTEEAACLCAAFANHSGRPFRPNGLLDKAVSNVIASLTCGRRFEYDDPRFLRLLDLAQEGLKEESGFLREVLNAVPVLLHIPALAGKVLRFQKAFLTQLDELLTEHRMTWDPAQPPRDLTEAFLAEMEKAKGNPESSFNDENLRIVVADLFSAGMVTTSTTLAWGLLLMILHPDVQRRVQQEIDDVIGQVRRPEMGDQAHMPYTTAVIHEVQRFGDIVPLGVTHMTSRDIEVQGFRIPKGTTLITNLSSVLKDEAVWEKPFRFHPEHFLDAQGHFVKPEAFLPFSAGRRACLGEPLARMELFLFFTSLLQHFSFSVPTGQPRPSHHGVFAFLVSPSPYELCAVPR

Compound: COc1cc2c(cc1OC)S(=O)(=O)C(CC1(F)CCN(Cc3ccccc3Cl)CC1)C2 (stereo not given)
- IC50 (Acetylcholinesterase): 5.5 nM

Compound: COc1cc2cc(CC3CCN(Cc4ccccc4)CC3)sc2cc1OC
- inhibition [1]: 46.6%

Compound: COc1cc2c(cc1OC)S(=O)(=O)C(CC1(F)CCN(Cc3cccc(F)c3)CC1)C2 (stereo not given)
- IC50 (Acetylcholinesterase): 5.1 nM

Compound: COc1cc2c(cc1OC)S(=O)(=O)/C(=C/C1CCN(Cc3ccccc3)CC1)CC2
- IC50 (Acetylcholinesterase): 1820 nM

Compound: COc1cc2c(cc1OC)S(=O)(=O)/C(=C/C1CCN(Cc3ccccc3)CC1)C2
- IC50 (Acetylcholinesterase): 4.7 nM

Compound: COc1cc2c(cc1OC)S(=O)(=O)C(CC1(F)CCN(Cc3ccc(F)cc3)CC1)C2 (stereo not given)
- IC50 (Acetylcholinesterase): 11.3 nM

Compound: COc1cc2c(cc1OC)S(=O)(=O)C(CC1(F)CCN(Cc3ccc(F)cc3F)CC1)C2 (stereo not given)
- IC50 (Acetylcholinesterase): 7.1 nM

Compound: COc1cc2c(cc1OC)S(=O)(=O)C(CC1(F)CCN(Cc3ccccc3)CC1)C2 (stereo not given)
- IC50 (Acetylcholinesterase): 4.1 nM

Compound: COc1cc2c(cc1OC)S(=O)(=O)C(CC1(F)CCN(Cc3ccccc3F)CC1)C2 (stereo not given)
- IC50 (Acetylcholinesterase): 8.5 nM

Compound: COc1cc2c(cc1OC)S(=O)(=O)C(CC1CCN(Cc3ccc(F)cc3)CC1)C2 (stereo not given)
- IC50 (Acetylcholinesterase): 11.3 nM

Compound: COc1cc2c(cc1OC)S(=O)(=O)C(CC1(F)CCN(Cc3cccc(Cl)c3)CC1)C2 (stereo not given)
- IC50 (Acetylcholinesterase): 5 nM

Compound: CCOC(=O)/C(=C\C1CCN(Cc2ccccc2)CC1)S(=O)(=O)c1ccc(OC)c(OC)c1
- inhibition [1]: 12.4%

Compound: COc1cc2c(cc1OC)S(=O)(=O)C(CC1CCN(Cc3ccccc3)CC1)C2 (stereo not given)
- IC50 (Acetylcholinesterase): 4.4 nM

Compound: COc1cc2c(cc1OC)S(=O)(=O)C(CC1CCN(Cc3ccccc3)CC1)=C2
- IC50 (Acetylcholinesterase): 317 nM

Compound: COc1cc2c(cc1OC)C(=O)C(CC1CCN(Cc3ccccc3)CC1)C2 (stereo not given) [DONEPEZIL]
- inhibition (Mus musculus [2]): Active
- Activity (SH-SY5Y [3]): Active
- MNTC [4]: 100 µM
- inhibition (Mus musculus [5]): Active
- Activity (SH-SY5Y [6]): Active
- Activity (Mus musculus [7]): Active
- Activity (SH-SY5Y [8]): Active
- Activity (SH-SY5Y [9]): Dde
- Activity (SH-SY5Y [10]): Active

Compound: COc1cc2c(cc1OC)S(=O)(=O)C(CC1CCN(Cc3ccccc3F)CC1)C2 (stereo not given)
- IC50 (Acetylcholinesterase): 11.5 nM

Compound: CO/C(=C\C1CCN(Cc2ccccc2)CC1)S(=O)(=O)c1ccc(OC)c(OC)c1
- IC50 (Acetylcholinesterase): 8440 nM

Compound: COc1cc2c(cc1OC)S(=O)(=O)C(F)(CC1CCN(Cc3cccc(F)c3)CC1)C2 (stereo not given) [listing 1 of 2 here]
- inhibition (Mus musculus [11]): Dde
- inhibition (Mus musculus [12]): Dde
- inhibition [13]: Active
- Activity (SH-SY5Y [3]): Active
- inhibition (Mus musculus [14]): Active
- inhibition [15]: Active
- Activity (Mus musculus [16]): Active
- Activity (SH-SY5Y [6]): Active
- Activity (SH-SY5Y [17]): Active
- Activity (SH-SY5Y [18]): Active
- inhibition (Mus musculus [19]): Active
- Activity (SH-SY5Y [8]): Active
- Activity (SH-SY5Y [9]): Dde
- Activity (SH-SY5Y [10]): Active

Compound: COc1cc2c(cc1OC)S(=O)(=O)C(CC1(F)CCN(Cc3ccccc3C(F)(F)F)CC1)C2 (stereo not given)
- IC50 (Acetylcholinesterase): 3010 nM

Compound: COc1cc2c(cc1OC)S(=O)(=O)C(CC1CCN(Cc3cccc(F)c3)CC1)C2 (stereo not given)
- IC50 (Acetylcholinesterase): 4.4 nM

Compound: COc1cc2c(cc1OC)S(=O)(=O)C(CC1(F)CCN(Cc3ccccc3C)CC1)C2 (stereo not given)
- IC50 (Acetylcholinesterase): 12.1 nM

Compound: COc1cc2c(cc1OC)S(=O)(=O)C(CC1(F)CCN(Cc3cccc(C)c3)CC1)C2 (stereo not given)
- IC50 (Acetylcholinesterase): 3.8 nM

Compound: COc1cc2c(cc1OC)S(=O)(=O)C(F)(CC1CCN(Cc3cccc(F)c3)CC1)C2 (stereo not given) [listing 2 of 2 here]
- IC50 (Cytochrome P450 2C9): > 20000 nM
- IC50 (Cytochrome P450 2D6): > 20000 nM
- IC50 [20]: > 20000 nM
- IC50 [21]: > 20000 nM

Compound: COc1cc2c(cc1OC)S(=O)(=O)C(CC1(F)CCN(Cc3ccc(F)c(Cl)c3)CC1)C2 (stereo not given)
- IC50 (Acetylcholinesterase): 12.9 nM

Compound: COc1cc2c(cc1OC)S(=O)(=O)C(CC1CCN(Cc3ccc(F)c(Cl)c3)CC1)C2 (stereo not given)
- IC50 (Acetylcholinesterase): 11.5 nM

Compound: COc1ccc(S(=O)(=O)/C(Cl)=C/C2CCN(Cc3ccccc3)CC2)cc1OC
- IC50 (Acetylcholinesterase): 340 nM

Compound: COc1cc2c(cc1OC)S(=O)(=O)C(CC1CCN(Cc3ccc(F)cc3F)CC1)C2 (stereo not given)
- IC50 (Acetylcholinesterase): 14.7 nM

Compound: COc1cc2c(cc1OC)S(=O)(=O)C(CC1CCN(Cc3c(F)cc(F)cc3F)CC1)C2 (stereo not given)
- IC50 (Acetylcholinesterase): 128 nM

Compound: COc1cc2c(cc1OC)S(=O)(=O)/C(=C/C1CCN(Cc3ccccc3)CC1)CCC2
- inhibition [1]: 32.8%

Compound: COc1ccc(S(=O)(=O)/C=C/C2CCN(Cc3ccccc3)CC2)cc1OC
- IC50 (Acetylcholinesterase): 67.6 nM

Compound: COc1cc2c(cc1OC)S(=O)(=O)/C(=C\C1CCN(Cc3ccccc3)CC1)C2
- IC50 (Acetylcholinesterase): 11.1 nM
